Source: patent US20160207994A1, “MODULATORS OF IL-12 AND/OR IL-23 FOR THE PREVENTION OR TREATMENT OF ALZHEIMER'S DISEASE” (UNIVERSITAT ZURICH, priority 2011, published 2016)

How the values were obtained:
[1] = tested on: IL-6, IL-1β IL-23 and TNF-a; conditions: cited from earlier work
IL-12/p40 = conditions: cited from earlier work
[2] = tested on: isolated postnatal microglial cell cultures; assay: Cytokine gene expression in microglial cell cultures treated with synthetic Aβ1-42; type: cell-based; conditions: 22.5 μg/ml
Description: Treatment of isolated postnatal microglial cell cultures with synthetic Aβ1-42 peptides (22.5 μg/ml) induced an almost 6-fold upregulation of IL-12/IL-23p40 after 24 h when compared to unstimulated controls (FIG. 1c).
Since both in human AD samples as well as in transgenic AD mice, microglia and macrophages surrounding Aβ-plaques are reported to be a major source of inflammatory cytokines, we FACS sorted myeloid brain cells of Alzheimer mice in order to better characterize this inflammatory component. Initially, we assessed the expression of IL-12, IL-23 and TNFα in 4-month-old APPPS1 animals and age matched non-transgenic littermates by quantitative PCR of the two cellular fractions obtained (CD45^+ CD11b^+ and CD45^− CD11b^−). […] In contrast, we observed a robust upregulation of IL-12/IL-23p40 and IL-23p19 in the double positive fraction containing microglia and brain macrophages of APPPS1 mice compared to age-matched littermate controls (FIG. 1b). […] To validate a potential link between IL-12 and IL-23 subunits and Aβ-pathology in APPPS1 transgenic animals—besides their impact in models of CNS autoimmune disease, IL-12/IL-23 have not been described to play a role in neurodegenerative diseases so far—as well as to test, whether inhibition of IL-12 and IL-23 subunits could alter disease progression in AD mice, genetic and applied experiments targeting IL-12 and IL-23 subunits in AD mice were performed.

Molecule: CC/C=C\C[C@H](O)C(O)/C=C/C=C/C=C\C=C\[C@@H](O)C/C=C\CCC(=O)O (stereo partly drawn) [Resolvin D2, (7S, 17S)-7, 16, 17-trihydroxydocosa-4,8, 10, 12, 14, 19-hexaenoic acid]
- levels of proinflammatory cytokines, namely IL-6, IL-1β IL-23 and TNF-a [1]: drastically reduces

Molecule: CC[C@@H](O)/C=C/C=C\C[C@@H](O)/C=C/C=C/C=C\[C@@H](O)CCCC(=O)O [Resolvin E1, (5S, 12R, 18R)-5, 12, 18-trihydroxyicosa-6,8, 10, 14, 16-pentaenoic acid]
- proinflammatory gene expression, i. a. IL-12/p40 (IL-12/p40): dramatically decreases

Molecule: Aβ1-42 peptides: synthetic Aβ1-42 peptides used to stimulate microglial cell cultures
- upregulation of IL-23p19 [2]: substantial upregulation
- upregulation of TNFα [2]: substantial upregulation
- upregulation of IL-12/IL-23p40 over unstimulated controls ([2]; 24 h): ~6 fold
